Measured values taken from ChEMBL document CHEMBL1201862, “PubChem BioAssay data set” (2004).
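Where inhibition never reached the appropriate level, the endpoint shown equals the highest concentration tested. Otherwise, values were interpolated linearly from a five-concentration, 48-hour dose response in 96-well plates. GI50: concentration for 50% inhibition of growth.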 Calls of active or inactive are those of the source. Rule as the data show it: active = GI50 up to about 1.1 µM and inactive = higher.

How the values were obtained:
Assay in all cases: growth of human tumour cells (NCI), 48 h
MDA-MB-231 = system: MDA-MB-231
COLO 205 = system: COLO 205
DU-145 = system: DU-145
CCRF-CEM = system: CCRF-CEM
MCF7 = system: MCF7
RXF 393 = system: RXF 393
HOP-92 = system: HOP-92
M14 = system: M14
SF-268 = system: SF-268
NCI-H23 = system: NCI-H23
NCI-H522 = system: NCI-H522
BT-549 = system: BT-549
KM12 = system: KM12
SN12C = system: SN12C
SF-295 = system: SF-295
RPMI-8226 = system: RPMI-8226
Hs-578T = system: Hs-578T
UACC-257 = system: UACC-257
EKVX = system: EKVX
MDA-N = system: MDA-N
MDA-MB-435 = system: MDA-MB-435
HCT-15 = system: HCT-15
ACHN = system: ACHN
SK-OV-3 = system: SK-OV-3
A498 = system: A498
SNB-75 = system: SNB-75
SR = system: SR
LOX IMVI = system: LOX IMVI
U-251 = system: U-251
OVCAR-3 = system: OVCAR-3
Malme-3M = system: Malme-3M
TK-10 = system: TK-10
NCI/ADR-RES = system: NCI/ADR-RES
SK-MEL-28 = system: SK-MEL-28
UACC-62 = system: UACC-62
SW-620 = system: SW-620
SK-MEL-5 = system: SK-MEL-5
786-0 = system: 786-0
IGROV-1 = system: IGROV-1
HOP-62 = system: HOP-62
MOLT-4 = system: MOLT-4
NCI-H460 = system: NCI-H460
SF-539 = system: SF-539
SK-MEL-2 = system: SK-MEL-2
CAKI-1 = system: CAKI-1
UO-31 = system: UO-31
HL-60 = system: HL-60
SNB-19 = system: SNB-19
OVCAR-5 = system: OVCAR-5
A549 = system: A549
PC-3 = system: PC-3
T47D = system: T47D
HCT-116 = system: HCT-116
K562 = system: K562
OVCAR-4 = system: OVCAR-4
OVCAR-8 = system: OVCAR-8
HT-29 = system: HT-29
HCC 2998 = system: HCC 2998
NCI-H226 = system: NCI-H226

Structure (SMILES): Cc1cccc2c(N)c3cccc(C(=O)NCCNCCN)c3nc12
- GI50 (MDA-MB-231): 1.96 µM (inactive)
- GI50 (COLO 205): 2.71 µM (inactive)
- GI50 (DU-145): 2.62 µM (inactive)
- GI50 (CCRF-CEM): 0.448 µM (active)
- GI50 (MCF7): 0.369 µM (active)
- GI50 (RXF 393): 12.6 µM (inactive)
- GI50 (HOP-92): 7.6 µM (inactive)
- GI50 (M14): 28.7 µM (inactive)
- GI50 (SF-268): 0.0698 µM (active)
- GI50 (NCI-H23): 0.598 µM (active)
- GI50 (NCI-H522): 0.0826 µM (active)
- GI50 (BT-549): 14.6 µM (inactive)
- GI50 (KM12): 3.89 µM (inactive)
- GI50 (SN12C): 0.179 µM (active)
- GI50 (SF-295): 3.68 µM (inactive)
- GI50 (RPMI-8226): 9.55 µM (inactive)
- GI50 (Hs-578T): 1.24 µM (inactive)
- GI50 (UACC-257): 26.2 µM (inactive)
- GI50 (EKVX): 10.4 µM (inactive)
- GI50 (MDA-N): 16 µM (inactive)
- GI50 (MDA-MB-435): 18.7 µM (inactive)
- GI50 (HCT-15): 12.4 µM
- GI50 (ACHN): 3.8 µM (inactive)
- GI50 (SK-OV-3): 26.9 µM (inactive)
- GI50 (A498): 23.7 µM (inactive)
- GI50 (SNB-75): 0.631 µM (active)
- GI50 (SR): 8.09 µM (inactive)
- GI50 (LOX IMVI): 5.28 µM (inactive)
- GI50 (U-251): 0.736 µM (active)
- GI50 (OVCAR-3): 21.9 µM (inactive)
- GI50 (Malme-3M): 15.4 µM (inactive)
- GI50 (TK-10): 22.3 µM (inactive)
- GI50 (NCI/ADR-RES): 27.9 µM (inactive)
- GI50 (SK-MEL-28): 15.8 µM (inactive)
- GI50 (UACC-62): 7.4 µM (inactive)
- GI50 (SW-620): 8.02 µM (inactive)
- GI50 (SK-MEL-5): 5.11 µM (inactive)
- GI50 (786-0): 0.0644 µM (active)
- GI50 (IGROV-1): 5.01 µM (inactive)
- GI50 (HOP-62): 0.533 µM (active)
- GI50 (MOLT-4): 0.0649 µM (active)
- GI50 (NCI-H460): 0.558 µM (active)
- GI50 (SF-539): 1.61 µM (inactive)
- GI50 (SK-MEL-2): 13 µM (inactive)
- GI50 (CAKI-1): 3.8 µM (inactive)
- GI50 (UO-31): 12.3 µM (inactive)
- GI50 (HL-60): 8.83 µM (inactive)
- GI50 (SNB-19): 1.16 µM (inactive)
- GI50 (OVCAR-5): 22.8 µM (inactive)
- GI50 (A549): 0.203 µM (active)
- GI50 (PC-3): 10.8 µM (inactive)
- GI50 (T47D): 7.36 µM (inactive)
- GI50 (HCT-116): 2.52 µM (inactive)
- GI50 (K562): 8.28 µM (inactive)
- GI50 (OVCAR-4): 2.67 µM (inactive)
- GI50 (OVCAR-8): 0.995 µM (active)
- GI50 (HT-29): 2.9 µM (inactive)
- GI50 (HCC 2998): 6.79 µM (inactive)

Structure (SMILES): S=C1NC2=C(COC/C2=C\c2ccccc2Cl)C(c2ccccc2Cl)N1 (centres undefined)
- GI50 (MDA-MB-231): > 100 µM (inactive)
- GI50 (COLO 205): 18.5 µM (inactive)
- GI50 (DU-145): 70.8 µM (inactive)
- GI50 (CCRF-CEM): 8.75 µM (inactive)
- GI50 (MCF7): 16.4 µM (inactive)
- GI50 (RXF 393): 33.3 µM (inactive)
- GI50 (HOP-92): 36.4 µM (inactive)
- GI50 (M14): 25.8 µM (inactive)
- GI50 (SF-268): 51.4 µM (inactive)
- GI50 (NCI-H23): 34.9 µM (inactive)
- GI50 (NCI-H522): 29.6 µM (inactive)
- GI50 (BT-549): 48.8 µM (inactive)
- GI50 (KM12): 11 µM (inactive)
- GI50 (SN12C): 33 µM (inactive)
- GI50 (SF-295): 35.2 µM (inactive)
- GI50 (RPMI-8226): 5.26 µM (inactive)
- GI50 (Hs-578T): > 100 µM (inactive)
- GI50 (UACC-257): 56 µM (inactive)
- GI50 (EKVX): 33.2 µM (inactive)
- GI50 (MDA-N): 32.7 µM (inactive)
- GI50 (MDA-MB-435): 25.7 µM (inactive)
- GI50 (HCT-15): 16.8 µM
- GI50 (ACHN): 34.4 µM (inactive)
- GI50 (SK-OV-3): > 100 µM (inactive)
- GI50 (A498): 80 µM (inactive)
- GI50 (SNB-75): 49.5 µM (inactive)
- GI50 (SR): 2.84 µM (inactive)
- GI50 (LOX IMVI): 21.2 µM (inactive)
- GI50 (U-251): 25.1 µM (inactive)
- GI50 (OVCAR-3): 32.1 µM (inactive)
- GI50 (NCI-H226): 27.4 µM (inactive)
- GI50 (TK-10): 55.8 µM (inactive)
- GI50 (NCI/ADR-RES): 21.2 µM (inactive)
- GI50 (UACC-62): 65.3 µM (inactive)
- GI50 (SW-620): 25.5 µM (inactive)
- GI50 (SK-MEL-5): 15.6 µM (inactive)
- GI50 (786-0): 36 µM (inactive)
- GI50 (IGROV-1): 39.1 µM (inactive)
- GI50 (HOP-62): 61.4 µM (inactive)
- GI50 (MOLT-4): 7.5 µM (inactive)
- GI50 (NCI-H460): 18.8 µM (inactive)
- GI50 (SF-539): 34.9 µM (inactive)
- GI50 (SK-MEL-2): 21.2 µM (inactive)
- GI50 (CAKI-1): 73.8 µM (inactive)
- GI50 (UO-31): 19.5 µM (inactive)
- GI50 (HL-60): 11.4 µM (inactive)
- GI50 (SNB-19): 50.5 µM (inactive)
- GI50 (OVCAR-5): > 100 µM (inactive)
- GI50 (PC-3): 14.3 µM (inactive)
- GI50 (T47D): 41.5 µM (inactive)
- GI50 (HCT-116): 17.5 µM (inactive)
- GI50 (K562): 14.9 µM (inactive)
- GI50 (OVCAR-4): 31.3 µM (inactive)
- GI50 (OVCAR-8): 29.8 µM (inactive)
- GI50 (HCC 2998): 6.98 µM (inactive)

Structure (SMILES): CN(C)Cc1cc(/N=N/c2ccc(Cl)c(Cl)c2)ccc1O
- GI50 (MDA-MB-231): 5.15 µM (inactive)
- GI50 (COLO 205): 2.84 µM (inactive)
- GI50 (DU-145): 4 µM (inactive)
- GI50 (CCRF-CEM): 4.43 µM (inactive)
- GI50 (MCF7): 4.46 µM (inactive)
- GI50 (RXF 393): 1.48 µM (inactive)
- GI50 (HOP-92): 3.3 µM (inactive)
- GI50 (M14): 16 µM (inactive)
- GI50 (SF-268): 3.61 µM (inactive)
- GI50 (NCI-H23): 13.6 µM (inactive)
- GI50 (NCI-H522): 5.41 µM (inactive)
- GI50 (BT-549): 13.8 µM (inactive)
- GI50 (KM12): 4.35 µM (inactive)
- GI50 (SN12C): 14.7 µM (inactive)
- GI50 (SF-295): 17.8 µM (inactive)
- GI50 (RPMI-8226): 14.3 µM (inactive)
- GI50 (Hs-578T): 6.03 µM (inactive)
- GI50 (UACC-257): 16.8 µM (inactive)
- GI50 (EKVX): 12.6 µM (inactive)
- GI50 (MDA-N): 11.4 µM (inactive)
- GI50 (MDA-MB-435): 11.7 µM (inactive)
- GI50 (HCT-15): 6.5 µM
- GI50 (ACHN): 4.44 µM (inactive)
- GI50 (A498): 11.1 µM (inactive)
- GI50 (SNB-75): 7.13 µM (inactive)
- GI50 (SR): 7.45 µM (inactive)
- GI50 (LOX IMVI): 3.4 µM (inactive)
- GI50 (U-251): 11.5 µM (inactive)
- GI50 (OVCAR-3): 6.34 µM (inactive)
- GI50 (Malme-3M): 15.6 µM (inactive)
- GI50 (NCI-H226): 17.9 µM (inactive)
- GI50 (TK-10): 10.9 µM (inactive)
- GI50 (NCI/ADR-RES): 7.46 µM (inactive)
- GI50 (SK-MEL-28): 13.7 µM (inactive)
- GI50 (UACC-62): 5.96 µM (inactive)
- GI50 (SW-620): 11.1 µM (inactive)
- GI50 (SK-MEL-5): 12.4 µM (inactive)
- GI50 (786-0): 11.5 µM (inactive)
- GI50 (IGROV-1): 3.4 µM (inactive)
- GI50 (HOP-62): 2.72 µM (inactive)
- GI50 (MOLT-4): 6.21 µM (inactive)
- GI50 (NCI-H460): 6.35 µM (inactive)
- GI50 (SF-539): 18.5 µM (inactive)
- GI50 (CAKI-1): 12.6 µM (inactive)
- GI50 (UO-31): 2.49 µM (inactive)
- GI50 (HL-60): 2.52 µM (inactive)
- GI50 (SNB-19): 13.6 µM (inactive)
- GI50 (A549): 13.9 µM (inactive)
- GI50 (PC-3): 11.6 µM (inactive)
- GI50 (T47D): 7 µM (inactive)
- GI50 (HCT-116): 14.4 µM (inactive)
- GI50 (K562): 2.61 µM (inactive)
- GI50 (OVCAR-4): 7.28 µM (inactive)
- GI50 (OVCAR-8): 12.9 µM (inactive)
- GI50 (HT-29): 6.53 µM (inactive)
- GI50 (HCC 2998): 12.1 µM (inactive)
